Laboratory results from patent US8518957B2, “Methanocarba adenosine derivatives, pharmaceutical compositions, and method of reducing intraocular pressure” (The United States of America, as represented by the …, priority 2009, dated 2013).

How the values were obtained:
[1] = target: T1, human A1 AR (Homo sapiens, UniProt P30542); experiment: Radioligand binding at human A1 AR ([3H]NECA, membranes of CHO cells); conditions: for % inhibition, A1: inhibition of radioligand binding at 10 μM, [3H]36, CHO cells
T1 construct: expressed in transfected cells
T1 sequence (P30542 1-326): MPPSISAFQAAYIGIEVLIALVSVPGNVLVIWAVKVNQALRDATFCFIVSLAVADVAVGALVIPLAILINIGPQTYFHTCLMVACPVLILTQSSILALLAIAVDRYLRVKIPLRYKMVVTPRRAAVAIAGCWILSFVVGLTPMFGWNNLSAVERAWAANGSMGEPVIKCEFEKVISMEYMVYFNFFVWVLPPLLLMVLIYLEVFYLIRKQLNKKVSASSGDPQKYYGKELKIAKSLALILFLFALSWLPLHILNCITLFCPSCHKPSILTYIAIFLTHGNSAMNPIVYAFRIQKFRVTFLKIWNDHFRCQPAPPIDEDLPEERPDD
Summary of the method: (§1)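 Membranes from CHO (hA1, hA3) or HEK-293 (hA2A) cells were pretreated with adenosine deaminase and incubated 60 min at 25° C in pH 7.5 Tris/10 mM MgCl2. Radioligands were A1 [3H]NECA 3.5 nM, A2A [3H]CGS21680 10 nM and A3 [125I]I-AB-MECA 0.34 nM. Bound ligand was filtered and Ki derived.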

[2] = target: T2, hA2AAR (Homo sapiens, UniProt P29274); experiment: Radioligand binding at human A2A AR ([3H]CGS21680, membranes of HEK-293 cells); conditions: for Ki / % inhibition, A2A: [3H]37, HEK293 cells; for Ki: read-out: Affinity (Ki, nM), A2A; for % inhibition, A2A: inhibition of radioligand binding at 10 μM
T2 construct: expressed in transfected cells
T2 sequence (P29274 whole entry): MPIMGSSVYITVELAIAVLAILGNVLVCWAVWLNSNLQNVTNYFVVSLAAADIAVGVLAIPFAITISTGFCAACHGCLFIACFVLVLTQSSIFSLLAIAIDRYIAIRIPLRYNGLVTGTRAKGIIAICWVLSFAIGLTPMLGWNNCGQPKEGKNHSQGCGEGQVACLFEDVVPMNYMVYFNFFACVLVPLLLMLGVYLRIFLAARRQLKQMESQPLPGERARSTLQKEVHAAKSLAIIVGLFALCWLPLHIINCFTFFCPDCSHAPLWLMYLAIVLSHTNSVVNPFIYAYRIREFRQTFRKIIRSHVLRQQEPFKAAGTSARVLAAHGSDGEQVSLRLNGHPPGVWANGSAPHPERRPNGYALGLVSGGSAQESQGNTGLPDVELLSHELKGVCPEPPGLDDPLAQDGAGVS
Summary of the method: as §1

[3] = target: T3, human A3AR (Homo sapiens, UniProt P0DMS8); experiment: Cyclic AMP accumulation assay: inhibition of forskolin-stimulated cyclic AMP production in AR-transfected CHO cells; type: cell-based; conditions: at 10 μM, in comparison to the maximal effect of full agonist NECA at 10 μM
T3 construct: expressed in transfected cells
T3 sequence (P0DMS8 1-318): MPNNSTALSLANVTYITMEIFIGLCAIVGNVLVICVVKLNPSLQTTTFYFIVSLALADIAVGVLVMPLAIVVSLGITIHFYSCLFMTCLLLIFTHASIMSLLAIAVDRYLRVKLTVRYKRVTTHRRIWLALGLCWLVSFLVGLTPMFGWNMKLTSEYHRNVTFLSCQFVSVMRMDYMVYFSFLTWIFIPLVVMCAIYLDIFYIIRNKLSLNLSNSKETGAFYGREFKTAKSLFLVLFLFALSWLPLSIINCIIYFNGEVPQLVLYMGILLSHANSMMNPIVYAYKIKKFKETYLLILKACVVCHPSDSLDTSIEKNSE
Method: Intracellular cyclic AMP levels were measured with a competitive protein binding method. […] CHO cells that expressed the recombinant human A3AR were harvested by trypsinization. After centrifugation and resuspended in medium, cells were planted in 24-well plates in 1.0 mL medium. After 24 h, the medium was removed and cells were washed three times with 1 mL DMEM, containing 50 mM HEPES, pH 7.4. […] After 45 min forskolin (10 μM) was added to the medium, and incubation was continued for an additional 15 min. […] The cell lysate was resuspended and stored at −20° C. For determination of cyclic AMP production, protein kinase A (PKA) was incubated with [^3H]cyclic AMP (2 nM) in K2HPO4/EDTA buffer (K2HPO4, 150 mM; EDTA, 10 mM), 20 μL of the cell lysate, and 30 μL 0.1 M HCl or 50 μL of cyclic AMP solution (0-16 pmol/200 μL for standard curve). Bound radioactivity was separated by rapid filtration through Whatman GF/C filters and washed once with cold buffer. Bound radioactivity was measured by liquid scintillation spectrometry.
Bound radioactivity was separated by rapid filtration through Whatman GF/C filters and washed the filters once with cold buffer. Bound radioactivity was measured with liquid scintillation spectrometry.

Compound	inhibition at 10 µM [1] [%]	Ki [2] [nM]	% Inhibition of cAMP formation at hA3 AR [3] [%]	inhibition at 10 µM [2] [%]	% inhibition, A1 [1]	% inhibition, A2A [2]
CNC(=O)[C@@]12C[C@@H]1[C@@H](n1cnc3c(NCc4cccc(Cl)c4)nc(C#CCCCCc4cn(-c5ccc(F)c([N+](=O)[O-])c5)nn4)nc31)[C@H](O)[C@@H]2O [Compound 11]	8	6730 ± 280	116 ± 22			
CNC(=O)[C@@]12C[C@@H]1[C@@H](n1cnc3c(NCc4cccc(Cl)c4)nc(C#CCCCCc4cn(-c5ccc(N)cc5)nn4)nc31)[C@H](O)[C@@H]2O [Compound 12, (1S,2R,3S,4R,5S)-4′-(6-(3-Chlorobenzylamino)-2-(6-(1-(4-amino-phenyl)-1H-1,2,3-triazol-4-yl)hex-1-ynyl)-9H-purin-9-yl)-2′,3′-dihydroxybicyclo[3.1.0]hexane-1′-carboxylic acid N-methylamide]	3	5490 ± 1150	44.3 ± 2.4			
CNC(=O)[C@@]12C[C@@H]1[C@@H](n1cnc3c(NCc4cccc(Cl)c4)nc(C#CCCCCc4cn(-c5ccc(C(=O)O)cc5)nn4)nc31)[C@H](O)[C@@H]2O [Compound 13, (1S,2R,3S,4R,5S)-4′-(6-(3-Chlorobenzylamino)-2-(6-(1-(4-carboxyl-phenyl)-1H-1,2,3-triazol-4-yl)hex-1-ynyl)-9H-purin-9-yl)-2′,3′-dihydroxybicyclo[3.1.0]hexane-1′-carboxylic acid N-methylamide]	0		83.4 ± 13.1	40		
CNC(=O)[C@@]12C[C@@H]1[C@@H](n1cnc3c(NCc4cccc(Cl)c4)nc(C#CCCCCc4cn(-c5ccc(C(=O)CBr)cc5)nn4)nc31)[C@H](O)[C@@H]2O [Compound 14, (1S,2R,3S,4R,5S)-6-(3-Chlorobenzylamino)-4-(2-(6-(4-(2-bromoacetyl)phenyl)-1H-1,2,3-triazol-4-yphex-1-ynyl)-9H-purin-9-yl)-2′,3′-dihydroxybicyclo[3.1.0]hexane-1′-carboxylic acid N-methylamide]	12	5740 ± 730	109 ± 12			
CNC(=O)[C@@]12C[C@@H]1[C@@H](n1cnc3c(NCc4cccc(Cl)c4)nc(C#CCCCCc4cn(CCNC(C)=O)nn4)nc31)[C@H](O)[C@@H]2O [Compound 15, (1S,2R,3S,4R,5S)-6-(3-Chlorobenzylamino)-(2-(6-(1-(4-acetamidoethyl)-1H-1,2,3-triazol-4-yl)hex-1-ynyl)-9H-purin-9-yl)-2′,3′-dihydroxybicyclo[3.1.0]hexane-1′-carboxylic acid N-methylamide]	12	2440 ± 320	93.6 ± 17.7			
CNC(=O)[C@@]12C[C@@H]1[C@@H](n1cnc3c(NCc4cccc(Cl)c4)nc(C#CCCCCc4cn(CCCCN)nn4)nc31)[C@H](O)[C@@H]2O [Compound 16, (1S,2R,3S,4R,5S)-6-(3-Chlorobenzylamino)-(2-(6-(1-(4-aminobutyl)-1H-1,2,3-triazol-4-yl)hex-1-ynyl)-9H-purin-9-yl)-2′,3′-dihydroxybicyclo[3.1.0]hexane-1′-carboxylic acid N-methylamide]	13	1630 ± 350	64.4 ± 12.4			
CNC(=O)[C@@]12C[C@@H]1[C@@H](n1cnc3c(NCc4cccc(Cl)c4)nc(C#CCCCCc4cn(CCCCNC(C)=O)nn4)nc31)[C@H](O)[C@@H]2O [Compound 17, (1S,2R,3S,4R,5S)-6-(3-Chlorobenzylamino)-(2-(6-(1-(4-acetamidobutyl)-1H-1,2,3-triazol-4-yl)hex-1-ynyl)-9H-purin-9-yl)-2′,3′-dihydroxybicyclo[3.1.0]hexane-1′-carboxylic acid N-methylamide]	17	7240 ± 510	59.7 ± 19.2			
CNC(=O)[C@@]12C[C@@H]1[C@@H](n1cnc3c(NCc4cccc(Cl)c4)nc(C#CCCCCc4cn(C56CC7CC(CC(C7)C5)C6)nn4)nc31)[C@H](O)[C@@H]2O [Compound 18, (1S,2R,3S,4R,5S)-6-(3-Chlorobenzylamino)-(2-(6-(1-(adamantyl)-1H-1,2,3-triazol-4-yl)hex-1-ynyl)-9H-purin-9-yl)-2′,3′-dihydroxybicyclo[3.1.0]hexane-1′-carboxylic acid N-methylamide]	22	3280 ± 700	27.8 ± 17.4			
CNC(=O)[C@@]12C[C@@H]1[C@@H](n1cnc3c(NCc4cccc(Cl)c4)nc(C#CCCCCc4cn(Cc5ccc(-n6sccc6=O)cc5)nn4)nc31)[C@H](O)[C@@H]2O [Compound 19, (1S,2R,3S,4R,5S)-6-(3-Chlorobenzylamino)-(2-(1-(4-3-oxoisothiazol-2(3H)-yl)benzyl-1H-1,2,3-triazol-4-yphex-1-ynyl)-9H-purin-9-yl)-2′,3′-dihydroxybicyclo[3.1.0]hexane-β-carboxylic acid N-methylamide]	15		75.9 ± 16.5	49		
CNC(=O)[C@@]12C[C@@H]1[C@@H](n1cnc3c(NCc4cccc(Cl)c4)nc(C#CCCCCc4cn(CCCCCCNC(=O)CCCC[C@@H]5SC[C@@H]6NC(=O)N[C@@H]65)nn4)nc31)[C@H](O)[C@@H]2O [Compound 20, (1S,2R,3S,4R,5S)-6-(3-Chlorobenzylamino)-(2-(6-(1-(6-(5-(3aS,4S,6aR)-oxohexahydro-1H-thieno[3,4-d]imidazol-4-yl)pentanamido)hexyl-1H-1,2,3-triazol-4-yl)hex-1-ynyl)-9H-purin-9-yl)-2′,3′-dihydroxybicyclo[3.1.0]hexane-1′-carboxylic acid N-methylamide]	0		55.6 ± 12.5	27		
CNC(=O)[C@@]12C[C@@H]1[C@@H](n1cnc3c(NCc4cccc(Cl)c4)nc(C#CCCCCc4cn(CCCCCCC(=O)NCCCCCCNC(=O)CCCC[C@@H]5SC[C@@H]6NC(=O)N[C@@H]65)nn4)nc31)[C@H](O)[C@@H]2O [Compound 21]			41.8 ± 11.3		(0 ± 0%)	(19 ± 5%)
CNC(=O)[C@@]12C[C@@H]1[C@@H](n1cnc3c(NCc4cccc(Cl)c4)nc(C#CCCCCc4cn(CCCCCCNC(=O)c5ccc(-c6c7ccc(=N)c(S(=O)(=O)O)c-7oc7c(S(=O)(=O)O)c(N)ccc67)c(C(=O)O)c5)nn4)nc31)[C@H](O)[C@@H]2O [Compound 23]			37.8 ± 14.6		(0 ± 0%)	(23 ± 5%)
CNC(=O)[C@@]12C[C@@H]1[C@@H](n1cnc3c(NCc4cccc(Cl)c4)nc(-c4nnn(-c5ccc(N=C=S)cc5)c4CCCCc4cn(-c5ccc(N=C=S)cc5)nn4)nc31)[C@H](O)[C@@H]2O [Compound 25, (1S,2R,3S,4R,5S)-6-(3-Chlorobenzylamino)-(2-(1,6-bis(4-isothiocyante-phenyl)-1H-bis(1,2,3-triazol-4-yl)hex-1-ynyl)-9H-purin-9-yl)-2′,3′-dihydroxybicyclo[3.1.0]hexane-1′-carboxylic acid N-methylamide]	4		83.6 ± 7.2	40		
